Data as given in patent US20220125877A1, “METHOD FOR TREATING COLORECTAL CANCER” (SUN YAT-SEN UNIVERSITY, priority 2019, published 2022).

Tests used:
[1] = tested on: KRAS wildtype CRC cells SW48; experiment: Cell cycle, PI/RNase staining, flow cytometry; type: cell-based, human; settings: 24 h, FIG. 8C
Protocol: (§1) 1) The cells were inoculated onto a 6-well plate, and subjected to adherence growth for 12 h, then starvation treatment over the night, and treated with the addition of an agent for 24 h, then the cells were digested and washed for 3 times with PBS and centrifuged to discard supernatant; −20° C. pre-cooled 70% ethanol was added dropwise, and the cells were mixed well by vortex, and immobilized over the night at −20° C.
(§2) 2) The cells were horizontally centrifuged for 10 min at 2000 rpm to discard the supernatant; then the cells were washed with PBS for 2-3 times to remove the residual ethanol with centrifugation for 5 min each time.
(§3) 3) The cells were resuspended by 500 μL PI/RNase dyeing liquor, and incubated for 15 min in the dark, and put on a flow cytometry within 2 h for detection, and 488 nm wavelength was stimulated.
(§4) 4) FlowJo 7.6 software was used for graphing analysis.

[2] = tested on: KRAS mutation CRC cells LoVo; experiment: Cell cycle, PI/RNase staining, flow cytometry; type: cell-based, human; settings: 24 h, FIG. 8C
Protocol: as §1, §2, §3, §4

[3] = tested on: KRAS wildtype CRC cells SW48; experiment: Apoptosis, Annexin V/PI double staining; type: cell-based, human; settings: 2.5 mM, 5 mM and 10 mM, 24 h
Protocol: (§5) Annexin V/PI double staining was used on the KRAS wildtype cell SW48 and KRAS (G13D) mutation cells LoVo to detect the effect of metformin on the apoptosis of colorectal cancer cells.
(§6) 1) The cells were inoculated on a 6-well plate and subjected to adherence growth for 12 h, starvation treatment over the night, and treated with the addition of an agent for 24 h, then the cells were digested by EDTA-free trypsin and washed for once with PBS without immobilization.
(§7) 2) The cells were resuspended with the addition of 300 μl Binding Buffer, then 3 μl Annexin V-FITC and 3 μl Propidium Iodide (PI) were added and mixed well for incubation for 30 min in the dark at room temperature, then the cells were determined by a flow cytometry.
(§8) 3) Flow cytometry detection of antibodies: apoptosis kit (A211-02) was purchased from KeyGEN; the detection kit (558662) for cell cycle PI simple staining was purchased from BD company.

[4] = tested on: KRAS mutation CRC cells LoVo; experiment: Apoptosis, Annexin V/PI double staining; type: cell-based, human; settings: 2.5 mM, 5 mM and 10 mM, 24 h
Protocol: as §5, §6, §7, §8

[5] = tested on: KRAS wildtype CRC cells SW48; experiment: Plate clone formation; type: cell-based, human; settings: FIGS. 8A-B
Protocol: (§9) 1) Cell inoculation: the culture solution was absorbed and discarded to collect the cells, then the cells were suspended in a treatment condition culture solution, and counted for 3 times to obtain a mean value, then the concentration of a cell suspension was adjusted to 1×10^3/ml. 2.5 ml treatment condition culture solution was respectively added to per well of a 6-well culture plate; 0.5 ml cell suspension (namely, 500 cells per well) was added per well with a final volume of 3 ml. Note that the culture plate was shaken repeatedly according to a cross-shaped direction during inoculation, such that the cells were distributed evenly as much as possible.
(§10) 3) Clone staining: the culture was stopped when the cells formed visible clones (the number of cloned cells per well was about 50-150) by the naked eyes. The culture medium was discarded, and the clones were soaked and washed for twice with PBS carefully, 1.5 ml 4% paraformaldehyde was respectively added per well for immobilization for 15 min; then the immobilization solution was discarded, and the clones were cleaned with running water slowly; 1.5 ml crystal violet working solution was added per well, standing at room temperature, and the clones were stained for 30 min, and the staining solution was cleaned with running water slowly, then the remaining clones were dried in a draught cupboard. […]

[6] = tested on: KRAS mutation CRC cells LoVo; experiment: Plate clone formation; type: cell-based, human; settings: FIGS. 8A-B
Protocol: as §9, §10

[7] = tested on: KRAS^G13DSW48 graft with MATE1 over-expressed; experiment: Cell-derived xenograft (CDX), tumor growth; type: in vivo, BALB/c nude mice; settings: 200 mg/kg in water, 30 d, compared with the KRAS^G13DSW48 tumor, FIGS. 12G-L
Protocol: In the CDX, CRISPR/Cas9 was first utilized to build a KRAS^G13DSW48 cell line; MATE1 was knocked down by shRNA lentivirus transduction in SW48 to build a sh-MATE1-SW48 cell line; lentivirus was infected in KRAS^G13DSW48 cells to over-express MATE1. 1×10^6 cells were suspended in a basement membrane matrix (100 μl basement membrane matrix and 100 μl PBS) and subcutaneously injected into BALB/c nude mice. CDX mice were randomly distributed into a metformin treatment group and a control group. 200 mg/kg (equivalent to human 1000 mg) metformin was dissolved into water, and respectively taken by the 4 groups of animals; then the tumor size was measured; 30 d later, the tumor tissues were killed and weighed.

[8] = tested on: KRAS wildtype CRC cells SW48; experiment: Proliferation detection (Edu method); type: cell-based, human; settings: FIGS. 8A-B
Protocol: (§11) Edu was used to detect the ratio of proliferative cells, a plate clone formation experiment and PI/Rnase simple staining were used to detect the distribution of cell cycles, thus making the effect of metformin on the proliferation of CRC cells clear.
(§12) 1) Cell treatment by Edu: cells were cultured in a culture dish (covered with a sterilized cover glass), and subjected adherence growth for 12 h, and starvation treatment over the night, and treated with the addition of an agent for the corresponding time, and then added with EdU (final concentration: 10 μM) at the last 2-6 h (EdU treatment time was determined according to the cell growth rate).
(§13) 2) Immobilization: 4% paraformaldehyde was added according to 1 mL/well to immobilize the cells for 15 min at room temperature.
(§14) 3) Slide washing: 3% BSA (dissolved by PBS) was used according to 1 mL/well for washing for twice.
(§15) 4) Rupture of membrane: the cells were treated by 0.5% TritonX-100 according to 1 mL/well for 20 min at room temperature.
(§16) 5) Slide washing: the same as the step 3).
(§17) 6) Addition of a ClickiT reaction mixture: the reaction mixture was added per […] in the dark for 30 min at room temperature. […]
(§18) 11) The slide was observed under a full-automatic positive fluorescence microscope to analyze the result, and shoot and recorded (100×, 200×, 400×, the original image was kept).

[9] = tested on: KRAS mutation CRC cells LoVo; experiment: Proliferation detection (Edu method); type: cell-based, human; settings: FIGS. 8A-B
Protocol: as §11, §12, §13, §14, §15, §16, §17, §18

[10] = tested on: LoVo cell line with knock-down KRAS protein; experiment: Cell viability in KRAS knock-down cells; type: cell-based, human; settings: relative to LoVo, FIG. 8D
Protocol: The cells were inoculated on a plate according to the concentration of 5000 cells/well (48-well plate, 200 μl per well). The cells were treated with different ways according to the experimental requirements, and 10 μl CCK8 solution was added after a period of time. The cells were incubated for 1 h in an incubator; 200 μl supernatant were absorbed into a 96-well ELISA plate to determine OD450 with a microplate reader.
2) LoVo cells were subcultured to a 6-well plate (about 1×10^5/well), when cells were subjected to adherence growth, and the degree of cell fusion was not greater than 50%, fresh culture solution was replaced ahead of 2 h, and 10 μg/mL lentivirus infection enhancer polybrene was added. Multiplicity of Infection (MOI) of LoVo was about 20; lentivirus was added according to the formula: adding amount of lentivirus per well (μl)=MOI×cell population/titer (TU/ml)×1000. The culture solution was replaced after 16-18 h, and 1 μM puromycin was conventionally added for screening the cell line whose RNA stable expression was interfered by KRAS.

[11] = tested on: LoVo cell line with knock-down KRAS, TET1/2 interfered; experiment: Proliferation with TET1/2 interfered; type: cell-based, human; settings: MATE1 down-regulated once again, FIG. 16G

**Q.** `CN(C)C(=N)N=C(N)N` [metformin] was tested. Which “cell cycle distribution (G1, phase S)” value [1] did it give?
**A.** The value was “no obvious effect”.

**Q.** What about the “ratio of phase S cells” value [2] of the same compound?
**A.** The value was “reduces”.

**Q.** And the “ratio of G1 cells” value ([2]; concentration dependent)?
**A.** Its value is “dependently increases”.

**Q.** And the apoptosis [3]?
**A.** Its apoptosis is “do not accelerate the apoptosis”.

**Q.** And the apoptosis [4]?
**A.** The apoptosis was “do not accelerate the apoptosis”.

**Q.** And the clone formation [5]?
**A.** Its clone formation is “no obvious effect”.

**Q.** And the clone formation [6]?
**A.** The clone formation was “inhibits the clone formation”.

**Q.** What about the “anti-tumor effect (tumor growth)” value [7] of the same compound?
**A.** Its value is “has no effect”.

**Q.** What about the “ratio of proliferating-phase cells (EdU positive)” value [8] of the same compound?
**A.** Its value is “no obvious effect”.

**Q.** And the “ratio of proliferating-phase cells (EdU positive)” value [9]?
**A.** Its value is “decreases”.

**Q.** And the “inhibiting effect on cell viability after interference of KRAS (G13D) expression” value [10]?
**A.** The value was “down-regulate the inhibiting effect”.

**Q.** What about the “inhibiting effect on proliferation of tumor cells with TET1/2 interfered” value [11] of the same compound?
**A.** The value was “accelerating the inhibiting effect”.
